Measurements published in US7129073B2, “Regulation of neuronal function through metabotropic glutamate receptor signaling pathways” (The Rockefeller University, priority 2001, dated 2006).
Entries after “also recorded” stand apart in the source; their conditions may differ.

How the values were obtained:
Assay type in all cases: cell-based, mouse
[1] = system: voltage-dependent Ca2+ channels; assay: whole-cell recordings of voltage-dependent Ca2+ channels in dissociated neostriatal neurons; details: for effect on basal Ca2+ currents / effect on the enhancement of Ca2+ currents by DHPG: CK1–7 100 μM, butyrolactone 25 μM (FIG. 6)
Method: Neostriatal neurons from 3- to 4-week-old mice were acutely dissociated by using procedures similar to those disclosed in Eberwine et al. (1995, Prog. Brain Res. 105:117–126). Whole-cell current recordings used standard voltage-clamp techniques. The internal solution consisted of 180 mM N-methyl-D-glucamine, 40 mM Hepes, 4 mM MgCl2, 0.5 mM 1,2-bis(2-aminophenoxy)ethane-N,N,N′,N′-tetraacetate, 12 mM phosphocreatine, 2 mM Na2ATP, 0.2 mM Na3GTP, 0.1 mM leupeptin (pH 7.2–7.3), 265–270 mosm/liter. The external solution consisted of 135 mM NaCl, 20 mM CsCl, 1 mM MgCl2, 10 mM Hepes, 0.001 mM tetrodotoxin, 5 mM BaCl2, 10 mM glucose (pH 7.3), 300–305 mosm/liter. Recordings were obtained with an Axon Instruments 200B patch clamp amplifier that was controlled and monitored with an IBM PC running PCLAMP™ (v. 8) with a DigiData 1320 series interface (Axon Instruments, Foster City, Calif.). Electrode resistances were typically 2–4 MΩ in the bath. After seal rupture, series resistance (4–10 MΩ) was compensated (70–90%) and periodically monitored. Drugs were applied with a gravity-fed “sewer pipe” system. The array of application capillaries was positioned 250 μm from the cell under study. Solution changes were effected by altering the position of the array with a DC drive system controlled by a microprocessor-based controller (Newport-Klinger, Irvine, Calif.). Data analyses were performed with AXOGRAPH™ (Axon Instruments), […]™ (Albeck Software, Reading, Pa.), and […]™ (Abacus Concepts, Berkeley, Calif.).

Cdk5 = Cdk5 kinase activity immunoprecipitated from neostriatal slices, histone H-1 as substrate
Method: (§1) Neostriatal slices were prepared from male C57/BL6 mice (6–8 weeks old) in accordance with methods known in the art (Nishi, A. et al. 1997, J. Neurosci. 17:8147–8155). Slices were treated with a drug. After drug treatment, slices were immediately frozen in liquid nitrogen, and stored at −80° C. until assayed.
For Cdk5 immunoprecipitation, striatal tissue slices (approximately 150 μg total protein) were lysed using a Dounce homogenizer and 1 ml of lysis buffer (150 mM NaCl, 20 mM Tris-HCl (pH 7.4), 1 mM EDTA, 0.5% NP-40, 5 mM NaF, 5 mM Na3PO4 and protease inhibitors). Lysates were centrifuged at 10,000 g for 10 minutes at 4° C. Supernatants were pre-cleared by adding rabbit IgG-conjugated agarose for 40 minutes at 4° C. Ten μl of Cdk5 antibody conjugated to agarose were added and samples were incubated for 1 hour at 4° C. with mixing. Agarose pellets were collected and washed three times with 1 ml of lysis buffer and two times with kinase assay buffer (50 mM Hepes (pH 7.5), 10 mM MgCl2, 1 mM DTT). Cdk5 kinase assays were performed in a 30-μl reaction mixtures with 2 μg Histone H-1, 500 μM ATP and 5 μCi of γ-^32P-ATP. Samples were incubated at 30° C. for 10 minutes, reactions were stopped by addition of SDS-sample buffer, and samples were boiled for 5 minutes. Samples were separated by SDS-PAGE and analyzed as disclosed above for CKI assays. Data were analyzed by Student's t-test in Microsoft Excel software as indicated, with significance defined as p<0.05.
CK1 assays were performed in a 30 μl assay volume with 2 μg of purified DARPP-32, 500 μM ATP and 5 μCi γ-^32P-ATP. Reactions were started by addition of the ATP. Samples were incubated at 30° C. for 10 min and reactions were stopped by addition of SDS-sample buffer and boiled for 5 min. Samples were separated by SDS-PAGE (12% polyacrylamide). SDS-PAGE gels were dried and exposed to Kodak film for autoradiography. Results were quantified using a Molecular Dynamics PHOSPHORIMAGER™. Immunoprecipitation and assay of Cdk5 were performed as disclosed (20).

[2] = system: Ser137 of DARPP-32 (CK1 site); assay: DARPP-32 phospho-Ser137 immunoblot in neostriatal slices
Method: as §1
Frozen slices were sonicated in hot homogenization buffer containing 1% SDS and 50 mM NaF, and samples were boiled for 10 minutes. SDS-PAGE sample buffer was then added and samples were boiled for 5 minutes. Samples (approximately 120 μg of total protein) were separated by SDS-PAGE (10% polyacrylamide) and then transferred to nitrocellulose. In most studies, immunoblots were first probed with anti-phospho-Ser137 DARPP-32 antibody. The blots were then stripped and probed with anti-phospho-Thr75 DARPP-32 antibody. Blots were stripped again and probed with anti-total DARPP-32 antibody. […] Chemiluminescence was detected by autoradiography and bands were quantified by analysis of scanned images using NIH IMAGE 1.52 software. Data were statistically analyzed by Student's t test in Microsoft EXCEL™ software as indicated.
Neostriatal slices were prepared from male C57/BL6 mice (6–8 weeks old) as disclosed (22). Slices were treated with drugs as specified in the text and figure legends. After drug treatment, slices were immediately frozen in liquid nitrogen, and stored at −80° C. until assayed.
Frozen slices were sonicated in hot homogenization buffer containing 1% SDS and 50 mM NaF, and samples were boiled for 10 min. SDS-PAGE sample buffer was then added and samples were boiled for 5 min. Samples (approximately 120 μg protein) were separated by SDS-PAGE (10% polyacrylamide) and transferred to nitrocellulose. Immunoblots were first probed with antiphospho-Ser-137 DARPP-32 antibody. The blots were stripped and probed with anti-phosphoThr-75 DARPP-32 antibody. Blots were stripped again and probed with anti-total DARPP-32 antibody. Antibody binding was detected by enhanced chemiluminescence (ECL) using X-ray film, and images were analyzed by laser scanning densitometry using NIH Image 1.52 software. Data were statistically analyzed by Student's t-test using Microsoft EXCEL™ software as indicated.

Structure (SMILES)	time to enhancement of Ca2+ currents ([1]; DHPG)	effect on Ca2+ currents ([1]; DHPG 100 μM, wild-type neurons)	effect of DHPG on Ca2+ channels in neurons from DARPP-32 knock-out mice ([1]; DHPG 100 μM, nine out of ten neurons)	effect on Cdk5 kinase activity (Cdk5; DHPG treatment of slices)	increase in Cdk5 activity (Cdk5; DHPG, after 2 minutes, back to basal level after 5 minutes)	increase in phosphorylation of Ser137 ([2]; DHPG 100 μM, group I mGluR activation)	time of peak level of phosphorylation of Ser137 ([2]; DHPG 100 μM, back to basal level by 5 minutes)	effect on phosphorylation of Ser137 in DARPP-32 ([2]; slices treated with drug alone: DHPG 100 μM, ionomycin 2 μM)	effect on basal Ca2+ currents [1]	effect on the enhancement of Ca2+ currents by DHPG ([1]; DHPG 100 μM)	effect on the enhancement of Ca2+ currents by DHPG ([1]; DHPG 100 μM, listed as CK1–7)	effect on basal Ca2+ currents ([1]; listed as CK1–7)	effect of pretreatment on the effect of DHPG on Cdk5 kinase activity (Cdk5; CKI-7 dose-dependent, U73122 10 μM, BAPTA/AM 20 μM, cyclosporin A 5 μM)	effect on basal or DHPG-stimulated DARPP-32 phosphorylation at Ser137 ([2]; 50 μM CKI-7, 30 min before DHPG 2 min)	effect on basal and DHPG-stimulated DARPP-32 phosphorylation at Ser137 ([2]; CKI-7 100 to 300 μM, 30 min before DHPG 2 min)
N[C@H](C(=O)O)c1cc(O)cc(O)c1 [DHPG, (S)-3,5-Dihydroxyphenylglycine]	≤ 90 s	enhanced; also recorded: increased	completely eliminated; also recorded: no effect	rapid but transient increase; also recorded: increased	approximately 4 fold	2–3 fold	2 min	rapid but transient increase							
NCCNS(=O)(=O)c1ccc(Cl)c2ccncc12 [CKI-7]									significant reduction	eliminated	attenuated	reduced	attenuated	little effect	dose-dependent decreases
